ChEMBL document CHEMBL3632516, “Influence of polar side chains modifications on the dual enkephalinase inhibitory activity and conformation of human opiorphin, a pain perception related peptide” (Bioorg Med Chem Lett, 2015)
Residues, ends and D or L forms follow the SMILES beside them. *: point of attachment. X1 = CC(=O)N[C@@H]1[C@@H](O)[C@H](O)[C@@H](CO)O[C@@H]1*

Key:
[1] = molecular target: Aminopeptidase N (Homo sapiens, UniProt P15144); experiment: Inhibition of human recombinant aminopeptidase N using […] as substrate after 20 to 40 mins by fluorometry
Sequence of Aminopeptidase N (P15144 whole entry): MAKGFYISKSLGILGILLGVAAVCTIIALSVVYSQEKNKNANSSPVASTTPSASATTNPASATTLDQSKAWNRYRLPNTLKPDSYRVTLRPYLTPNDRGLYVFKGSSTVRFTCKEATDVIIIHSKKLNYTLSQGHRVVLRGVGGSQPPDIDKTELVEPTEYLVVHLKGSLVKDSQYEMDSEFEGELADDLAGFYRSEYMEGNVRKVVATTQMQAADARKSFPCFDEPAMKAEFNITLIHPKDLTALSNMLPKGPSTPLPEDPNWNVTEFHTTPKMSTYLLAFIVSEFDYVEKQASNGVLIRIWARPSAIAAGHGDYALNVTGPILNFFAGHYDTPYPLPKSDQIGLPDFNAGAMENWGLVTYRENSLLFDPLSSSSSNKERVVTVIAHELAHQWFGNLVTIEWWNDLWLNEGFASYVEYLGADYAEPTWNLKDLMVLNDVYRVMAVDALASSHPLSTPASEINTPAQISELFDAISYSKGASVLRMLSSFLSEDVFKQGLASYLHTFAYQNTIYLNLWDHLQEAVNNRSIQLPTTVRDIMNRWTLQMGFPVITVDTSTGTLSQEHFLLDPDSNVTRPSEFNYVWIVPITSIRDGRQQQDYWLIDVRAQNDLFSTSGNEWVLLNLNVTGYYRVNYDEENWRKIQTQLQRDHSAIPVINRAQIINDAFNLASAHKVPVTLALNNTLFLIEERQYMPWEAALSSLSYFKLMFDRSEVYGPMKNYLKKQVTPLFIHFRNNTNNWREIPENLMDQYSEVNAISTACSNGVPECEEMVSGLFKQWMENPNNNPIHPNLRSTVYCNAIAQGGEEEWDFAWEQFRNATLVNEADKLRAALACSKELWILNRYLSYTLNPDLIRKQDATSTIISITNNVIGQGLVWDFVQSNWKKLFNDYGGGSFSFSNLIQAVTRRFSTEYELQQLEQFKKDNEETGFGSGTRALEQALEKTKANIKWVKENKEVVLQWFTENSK

[2] = molecular target: Neprilysin (Homo sapiens, UniProt P08473); experiment: Inhibition of human recombinant neutral endopeptidase using […] as substrate after 20 to 40 mins by fluorometry
Sequence of Neprilysin (P08473 whole entry): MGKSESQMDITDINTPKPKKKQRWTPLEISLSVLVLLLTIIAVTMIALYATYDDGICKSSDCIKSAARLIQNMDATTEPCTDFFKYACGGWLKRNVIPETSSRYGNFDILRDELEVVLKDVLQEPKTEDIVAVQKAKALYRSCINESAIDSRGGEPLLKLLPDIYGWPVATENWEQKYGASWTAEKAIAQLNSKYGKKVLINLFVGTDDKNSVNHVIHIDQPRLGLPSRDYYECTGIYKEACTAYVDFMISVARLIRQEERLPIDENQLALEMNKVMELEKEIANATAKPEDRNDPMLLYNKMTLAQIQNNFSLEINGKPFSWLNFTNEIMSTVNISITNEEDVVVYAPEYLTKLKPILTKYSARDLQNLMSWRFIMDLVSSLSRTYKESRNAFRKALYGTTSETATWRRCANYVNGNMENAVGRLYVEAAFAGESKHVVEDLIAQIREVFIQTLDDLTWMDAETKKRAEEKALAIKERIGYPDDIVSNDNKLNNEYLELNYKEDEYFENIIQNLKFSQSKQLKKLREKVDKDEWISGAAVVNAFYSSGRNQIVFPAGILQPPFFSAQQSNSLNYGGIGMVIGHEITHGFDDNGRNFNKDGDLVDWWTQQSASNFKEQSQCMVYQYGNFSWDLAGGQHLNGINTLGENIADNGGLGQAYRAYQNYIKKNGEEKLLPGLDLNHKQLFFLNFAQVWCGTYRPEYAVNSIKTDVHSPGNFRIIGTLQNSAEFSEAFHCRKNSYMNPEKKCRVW

Molecule | IC50 [1] [µM] | IC50 [2] [µM]
H-QKFSR-OH | > 70 | 50
H-QRFSK-OH | > 70 | 35
H-QRFTR-OH | > 100 | > 100

Now from value to molecule:

IC50 [1] [µM] | IC50 [2] [µM] | Molecule
> 100 | > 100 | CC(=O)N[C@H]1[C@@H](O[C@H](C)[C@H](NC(=O)[C@H](Cc2ccccc2)NC(=O)[C@H](CCCNC(=N)N)NC(=O)[C@@H](N)CCC(N)=O)C(=O)N[C@@H](CCCNC(=N)N)C(=O)O)O[C@H](CO)[C@@H](O)[C@@H]1O (H-QRFT(X1)R-OH)
– | > 100 | H-QRFCR-OH
